Laboratory results as given in patent US20110184188A1, “Insecticidal Benzenedicarboxamide Derivative” (priority 2008, published 2011).

Assay: logP(acid) by reverse phase (C18) chromatography at pH 2.3
Format: physicochemical
Conditions: pH 2.3

SMILES | chromatographic logP
Cc1nc(Cn2nnc(C(F)(F)F)n2)ccc1[N+](=O)[O-] [SYNTHESIS EXAMPLE 85-1] | 2.85
Cc1nc(Cn2cc(C(F)(F)C(F)(F)F)c(C(F)(F)C(F)(F)F)n2)ccc1N [SYNTHESIS EXAMPLE 82-2] | 2.64

Same assay, conditions: pH 2.3; reverse phase (C18) chromatography, pH2.3, 0.1% phosphoric acid / acetonitrile gradient 10-95%; read-out: logP (acid)

SMILES | chromatographic logP
Cc1nc(Cn2nnc(C(F)(F)C(F)(F)C(F)(F)F)n2)ccc1N [SYNTHESIS EXAMPLE 86-2] | 2.3

Same assay, conditions: reverse phase (C18) chromatography at pH 2.3

SMILES | logP (acid)
Cc1cc(Cn2nc(C(F)(F)C(F)(F)F)nc2C(F)(F)F)ccc1NC(=O)c1cc(F)cc(Cl)c1C(=O)N[C@@H](C)CS(C)(=O)=O [10-15] | logP (acid) 3.37
CNC(=O)c1cc(Cl)cc(Cl)c1C(=O)Nc1ccc(Cn2nc(C(F)(F)F)nc2C(F)(F)F)cc1C [12-4] | logP (acid) 3.39
Cc1nc(Cn2nc(C(F)(F)C(F)(F)C(F)(F)F)cc2C(F)(F)F)ccc1NC(=O)c1cccc(Br)c1C(=O)N[C@@H](C)C[S+](C)[O-] (some centres unmarked) [13-136] | logP (acid) 3.08
CNC(=O)c1cc(Cl)cc(Cl)c1C(=O)Nc1ccc(Cn2nc(C(F)(F)F)cc2C(F)(F)F)cc1C [12-1] | logP (acid) 3.69
CSC[C@H](C)NC(=O)c1c(Cl)ccc(Br)c1C(=O)Nc1ccc(Cn2nc(C(F)(F)F)cc2C(F)(F)F)nc1C [11-13] | logP (acid) 3.89
Cc1nc(Cn2nc(C(F)F)c(Cl)c2C(F)F)ccc1NC(=O)c1cccc(Cl)c1C(=O)NC(C)C[S+](C)[O-] (mixture of isomers) [13-58] | 2.13
COc1ccc(Br)c(C(=O)Nc2ccc(Cn3nc(C(F)(F)C(F)(F)F)cc3C(F)(F)F)nc2C)c1C(=O)N[C@@H](C)C[S+](C)[O-] (some centres unmarked) [11-20] | logP (acid) 2.90
COc1ccc(Br)c(C(=O)Nc2ccc(Cn3nc(C(F)(F)C(F)(F)F)cc3C(F)(F)F)nc2C)c1C(=O)N[C@@H](C)CSC [11-19] | logP (acid) 4.02
CSC[C@H](C)NC(=O)c1c(Cl)cc(Cl)cc1C(=O)Nc1ccc(Cn2nc(C(F)(F)C(F)(F)F)nc2C(F)(F)F)cc1C [10-10] | logP (acid) 4.64
CSC[C@H](C)NC(=O)c1c(Cl)cccc1C(=O)Nc1ccc(Cn2c(C(F)(F)F)nc(Cl)c2Cl)nc1C [13-502] | 3.50
Cc1nc(Cn2nc(C(F)(F)C(F)(F)F)cc2C(F)(F)F)ccc1NC(=O)c1cccc(I)c1C(=O)NC(C)C[S+](C)[O-] (mixture of isomers) [13-190] | logP (acid) 2.76
CSC[C@H](C)NC(=O)c1c(Cl)cc(Cl)cc1C(=O)Nc1ccc(Cn2nc(C(F)(F)F)cc2C(F)(F)F)nc1C [10-1] | logP (acid) 4.18
CSC[C@H](C)NC(=O)c1c(Br)cccc1C(=O)Nc1ccc(Cn2nc(C(F)(F)C(F)(F)F)cc2C(F)(F)F)nc1C [13-135] | logP (acid) 4.30
CSC[C@H](C)NC(=O)c1c(Cl)ccc(Br)c1C(=O)Nc1ccc(Cn2nc(C(F)(F)C(F)(F)F)nc2C(F)(F)F)cc1C [11-30] | logP (acid) 4.28
COc1ccc(Br)c(C(=O)Nc2ccc(Cn3nc(C(F)(F)F)cc3C(F)(F)F)nc2C)c1C(=O)N[C@@H](C)CSC [11-16] | logP (acid) 3.63
CSC[C@H](C)NC(=O)c1c(Cl)cccc1C(=O)Nc1ccc(Cn2cc(C(F)(F)C(F)(F)F)c(C(F)(F)C(F)(F)F)n2)nc1C [13-50] | 4.27

Same assay, conditions: reverse phase (C18) chromatography at pH2.3, 0.1% phosphoric acid aqueous solution / acetonitrile, linear gradient 10-95% acetonitrile

SMILES | logP (acid)
Cc1cc(Cn2nc(C(F)(F)F)nc2C(F)(F)F)c(F)cc1NC(=O)c1cccc(Br)c1C(=O)N[C@@H](C)CS(C)(=O)=O [7-15] | logP (acid) 3.08
CSC[C@H](C)NC(=O)c1c(Br)cccc1C(=O)Nc1cc(F)c(Cn2nc(C(F)(F)F)cc2C(F)(F)F)cc1C [7-10] | logP (acid) 4.37
CSC[C@H](C)NC(=O)c1c(SC)cccc1C(=O)Nc1cc(F)c(Cn2nc(C(F)(F)F)nc2C(F)(F)F)cc1C [7-23] | logP (acid) 3.96

Same assay, conditions: reverse phase (C18) chromatography column, pH 2.3; reverse phase (C18) chromatography, pH2.3, 0.1% phosphoric acid / acetonitrile gradient 10-95%; read-out: logP (acid)

SMILES | chromatographic logP
Cc1cc(Cn2nc(C(F)(F)F)cc2C(F)(F)F)ncc1[N+](=O)[O-] [SYNTHESIS EXAMPLE 68-2] | 3.64
Cc1nc(Cn2nnc(C(F)(F)F)n2)ccc1N [SYNTHESIS EXAMPLE 85-2] | 1.18

Same assay, conditions: reverse phase (C18) chromatography, pH 2.3

SMILES | logP (acid)
CSC[C@H](C)NC(=O)c1c(C(=O)Nc2ccc(Cn3nc(C(F)(F)C(F)(F)F)nc3C(F)(F)F)cc2C)cccc1S(=O)(=O)N(C)C [14-384] | logP (acid) 3.88
CSC[C@H](C)NC(=O)c1c(C(=O)Nc2ccc(Cn3nc(C(F)(F)F)nc3C(F)(F)F)cc2C)cccc1S(=O)(=O)N(C)C [14-414] | logP (acid) 3.54
Cc1cc(Cn2nc(C(F)(F)C(F)(F)F)nc2C(F)(F)F)ccc1NC(=O)c1cccc(Cl)c1C(=O)NC(C)CC1(C)OCCO1 (centres unmarked) [14-360] | logP (acid) 3.86
CC(=O)CC(C)NC(=O)c1c(I)cccc1C(=O)Nc1ccc(Cn2nc(C(F)(F)C(F)(F)F)nc2C(F)(F)F)cc1C (centres unmarked) [14-297] | logP (acid) 3.70
CC(=O)OC[C@H](C)NC(=O)c1c(Cl)cccc1C(=O)Nc1ccc(Cn2nc(C(F)(F)F)nc2C(F)(F)F)cc1C [14-298] | logP (acid) 3.08
CSC[C@H](C)NC(=O)c1c(Cl)cccc1C(=O)Nc1ccc(Cn2cc(C(=O)NC(C)C(F)(F)F)c(C(F)(F)F)n2)cc1C (some centres unmarked) [13-208] | logP (acid) 3.25
CO/N=C(\C)CC(C)NC(=O)c1c(Br)cccc1C(=O)Nc1ccc(Cn2nc(C(F)(F)C(F)(F)F)nc2C(F)(F)F)cc1C (centres unmarked) [14-363] | logP (acid) 4.03
CSC[C@H](C)NC(=O)c1c(Cl)cccc1C(=O)Nc1ccc(Cn2cc(C(=O)NCC(F)(F)F)c(C(F)(F)F)n2)cc1C [13-210] | logP (acid) 3.05
CSC[C@H](C)NC(=O)c1c(Cl)cccc1C(=O)Nc1ccc(Cn2nc(C(F)(F)C(F)(F)F)cc2C(=O)C(F)(F)F)cc1C [13-220] | logP (acid) 3.52
CSC[C@H](C)NC(=O)c1c(Cl)cccc1C(=O)Nc1ccc(Cn2nnc(-c3ccc(C(F)(F)F)cc3)n2)cc1C [14-305] | logP (acid) 4.08
CSC[C@H](C)NC(=O)c1c(Cl)cccc1C(=O)Nc1ccc(Cn2nnc(C(F)(F)F)n2)nc1C [14-306] | logP (acid) 2.91
CSC[C@H](C)NC(=O)c1c(Br)cccc1C(=O)Nc1ccc(Cn2nc(C(F)(F)C(F)(F)F)n(C(F)F)c2=O)cc1C [14-331] | logP (acid) 3.75
Cc1nc(Cn2nc(C(F)(F)F)cc2C(F)(F)F)ccc1NC(=O)c1cccc(S(=O)(=O)N(C)C)c1C(=O)N[C@@H](C)CS(C)(=O)=O [13-289] | logP (acid) 2.75
CSC[C@H](C)NC(=O)c1c(Cl)cccc1C(=O)Nc1ccc(Cn2nc(C(F)(F)C(F)(F)F)n(C(F)F)c2=O)cc1C [14-328] | logP (acid) 3.68
CSC[C@H](C)NC(=O)c1c(SC)cccc1C(=O)Nc1cnc(Cn2nc(C(F)(F)F)nc2C(F)(F)F)cc1C [14-415] | logP (acid) 3.3
CCOC(=O)c1cn(Cc2ccc(NC(=O)c3cccc(Cl)c3C(=O)N[C@@H](C)CSC)c(C)c2)nc1C(F)(F)F [13-202] | logP (acid) 3.43
CSC[C@H](C)NC(=O)c1c(Br)cncc1C(=O)Nc1ccc(Cn2nc(C(F)(F)C(F)(F)F)nc2C(F)(F)F)cc1C [14-300] | logP (acid) 3.84
Cc1nc(Cn2nc(C(F)(F)C(F)(F)F)nc2C(F)(F)F)ccc1NC(=O)c1cccc(S(C)(=O)=O)c1C(=O)N[C@@H](C)CS(C)(=O)=O [14-396] | logP (acid) 2.76
Cc1nc(Cn2nc(C(F)(F)F)n(C)c2=O)ccc1NC(=O)c1cccc(Cl)c1C(=O)N[C@@H](C)C[S+](C)[O-] (some centres unmarked) [14-321] | logP (acid) 1.37
CSC[C@H](C)NC(=O)c1c(C(=O)Nc2ccc(Cn3nc(C(F)(F)F)nc3C(F)(F)F)nc2C)cccc1S(C)(=O)=O [14-364] | logP (acid) 2.98
CSC[C@H](C)NC(=O)c1c(C(=O)Nc2ccc(Cn3nc(C(F)(F)F)nc3C(F)(F)F)nc2C)cccc1S(=O)(=O)N(C)C [14-365] | logP (acid) 3.30
CSC[C@H](C)NC(=O)c1c(Cl)cccc1C(=O)Nc1ccc(Cn2nnc(C(F)(F)C(F)(F)C(F)(F)F)n2)nc1C [14-307] | logP (acid) 3.71
Cc1nc(Cn2nc(C(F)(F)F)n(C)c2=O)ccc1NC(=O)c1cccc(Cl)c1C(=O)N[C@@H](C)CS(C)(=O)=O [14-322] | logP (acid) 1.60
Cc1cc(Cn2nc(C(F)(F)C(F)(F)F)n(N)c2=O)ccc1NC(=O)c1cccc(Cl)c1C(=O)N[C@@H](C)CS(C)(=O)=O [14-423] | logP (acid) 2.13
CSC[C@H](C)NC(=O)c1c(C(=O)Nc2ccc(Cn3nc(C(F)(F)F)cc3C(F)(F)F)nc2C)cccc1S(C)(=O)=O [13-286] | logP (acid) 3.21

Same assay, conditions: reverse phase (C18) chromatography, pH2.3, 0.1% phosphoric acid / acetonitrile gradient 10-95%

SMILES | logP (acid)
CSC[C@H](C)NC(=O)c1c(Cl)cccc1C(=O)Nc1cc(F)c(C)cc1Cn1nc(C(F)(F)F)nc1C(F)(F)F [3-8] | logP (acid) 4.13

Same assay, conditions: reverse phase (C18) chromatography, pH2.3, 0.1% phosphoric acid aqueous solution / acetonitrile, linear gradient 10-95% acetonitrile

SMILES | logP (acid)
Cc1cc(Cn2nc(C(F)(F)F)nc2C(F)(F)F)ccc1NC(=O)c1ccc(C(F)(F)F)c(Cl)c1C(=O)N[C@@H](C)C[S+](C)[O-] (some centres unmarked) [9-19] | logP (acid) 2.98
CSC[C@H](C)NC(=O)c1c(C(=O)Nc2ccc(Cn3nc(C(F)(F)F)cc3C(F)(F)F)nc2C)ccc(C(F)(F)F)c1Cl [9-26] | logP (acid) 4.25
Cc1cc(Cn2nc(C(F)(F)C(F)(F)F)nc2C(F)(F)F)ccc1NC(=O)c1ccc(F)c(Br)c1C(=O)N[C@@H](C)C[S+](C)[O-] (some centres unmarked) [9-13] | logP (acid) 2.96
